Reference: article PMC3666979, “Eliciting Renal Failure in Mosquitoes with a Small-Molecule Inhibitor of Inward-Rectifying Potassium Channels” (PLoS ONE, 2013)
Marks after values point to notes of the source that are not given here.

Experiments:
[1] = tested on: adult female Anopheles gambiae; assay: Mosquito toxicology: incapacitation 24 h after injection (69 nl); assay type: in vivo; settings: 69 nl Na+-PBS with 10 mM
Method: (§1) Mosquitoes were first anesthetized on ice and then injected with 69 nl of fluid (see below) using a pulled-glass capillary attached to a nanoliter injector (Nanoject II, Drummond Scientific Company, Broomall, PA). The injected fluid was a sodium-based phosphate-buffered saline (Na^+-PBS) containing 15% DMSO and various concentrations of VU573 or VU342 to deliver the doses indicated in Figures 2A, 2C, and S3. The Na^+-PBS consisted of the following in mM: 137 NaCl, 2.7 KCl, 10 Na2HPO4, and 2 KH2PO4 (pH 7.5). After injection, the mosquitoes were placed in a small cage (10 females per cage) within a rearing chamber (28°C, 80% relative humidity, 12∶12 light∶dark) and allowed free access to a solution of 10% sucrose. The mosquitoes were observed 24 h after injection.
(§2) Data were analyzed using Prism 5 for Windows (Graphpad Software). To generate a dose-response curve for VU573, the doses (x-axis) were log transformed and then a non-linear curve was fitted to the data using the ‘log(agonist) vs. response’ algorithm. An ED50 was calculated from this curve. To compare 1) the incapacitating effects among the vehicle, VU573, and VU342 treatments, and 2) the rates of urine excretion among the control, vehicle, VU573, and VU342 treatments, one-way ANOVAs were performed with Newman-Keuls posttests. To compare the incapacitating effects between the vehicle and VU573 within each mosquito species, a paired t-test was used.
(§3) Supplementary file pone.0064905.s003.tif: Figure S3 Incapacitating effects of VU573 in three species of mosquitoes. Adult female mosquitoes were injected with Na^+- PBS (69 nl) containing the vehicle (15% DMSO) or VU573 (10 mM). ‘% Incapacitated’ refers to the proportion of mosquitoes that are flightless or dead within 24 h after injection. Values are means ± SEM (n = 4 independent trials of 10 mosquitoes). Statistical differences between vehicle and VU573-treated mosquitoes were determined by a paired t-test for each species. […]

[2] = tested on: adult female Aedes albopictus; assay: as above; assay type: in vivo; settings: 69 nl Na+-PBS with 10 mM
Method: as §1, §2, §3

[3] = tested on: adult female Culex pipiens; assay: as above; assay type: in vivo; settings: 69 nl Na+-PBS with 10 mM
Method: as §1, §2, §3

[4] = tested on: adult female mosquitoes (Aedes aegypti); assay: Mosquito toxicology: incapacitation 24 h after intrathoracic injection (69 nl); assay type: in vivo; settings: for mosquitoes bloated (retained fluid) / % Incapacitated (flightless or dead): 69 nl of 10 mM in PBS/15% DMSO; for mosquitoes bloated (retained fluid): 24 h; for % Incapacitated (flightless or dead): within 24 hours
Method: as §1, §2

AeKir1 [5] = target: T1, AeKir1 (Aedes aegypti, UniProt L0EQS9); assay: Whole-cell patch clamp of AeKir1 expressed in T-REx-HEK-293 cells; assay type: cell-based; settings: for IC50: AeKir1-mediated currents, T-REx-HEK-293 cells
T1 sequence (L0EQS9 entry or part of it): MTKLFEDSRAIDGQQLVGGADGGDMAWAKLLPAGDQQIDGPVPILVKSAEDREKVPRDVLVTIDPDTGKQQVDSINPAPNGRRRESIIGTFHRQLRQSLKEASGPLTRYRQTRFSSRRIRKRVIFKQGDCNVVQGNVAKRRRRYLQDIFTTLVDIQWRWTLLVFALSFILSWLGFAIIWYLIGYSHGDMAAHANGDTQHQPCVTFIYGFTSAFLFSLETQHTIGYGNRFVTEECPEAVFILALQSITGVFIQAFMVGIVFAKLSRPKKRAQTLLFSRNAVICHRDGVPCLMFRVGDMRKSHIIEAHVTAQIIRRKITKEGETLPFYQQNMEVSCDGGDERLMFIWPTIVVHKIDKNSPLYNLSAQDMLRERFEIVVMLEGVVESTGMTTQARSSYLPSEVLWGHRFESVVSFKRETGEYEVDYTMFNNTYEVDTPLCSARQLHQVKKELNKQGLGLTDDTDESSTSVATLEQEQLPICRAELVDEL
Method: T-REx-HEK293-AeKir1 cells were voltage clamped in the whole-cell configuration of the patch clamp technique after overnight induction with tetracycline (1 µg/ml). Patch electrodes were pulled from silanized 1.5 mm outer diameter borosilicate microhematocrit tubes using a Narishige PP-830 two-stage puller. Electrode resistance ranged from 2.5 to 3.5 MΩ when filled with the following intracellular solution (in mM): 135 KCl, 2 MgCl2, 1 EGTA, 10 HEPES free acid, 2 Na2ATP (Roche, Indianapolis, IN), pH 7.3, 275 mOsm. The standard bath solution contained (in mM): 135 NaCl, 5 KCl, 2 CaCl2, 1 MgCl2, 5 glucose, 10 HEPES free acid, pH 7.4, 290 mOsm. The high-K^+ bath contained (in mM): 90 NaCl, 50 KCl, 2 CaCl2, 1 MgCl2, 5 glucose, and 10 HEPES-free acid, pH 7.4, 290 mOsmol. Whole-cell currents were recorded under voltage-clamp conditions using an Axopatch 200B amplifier (Molecular Devices, Sunnyvale, CA). Electrical connections to the amplifier were made using Ag/AgCl wires and 3 M KCl/agar bridges. Electrophysiological data were collected at 5 kHz and filtered at 1 kHz. Data acquisition and analysis were performed using pClamp 9.2 software (Axon Instruments). After achieving stable whole-cell currents, VU573 or VU342 was applied intermittently or continuously for 2 to 10 min, followed by application of 2 mM BaCl2. All recordings were made at room temperature (20–23°C).

[6] = tested on: isolated Malpighian tubules; assay: Fluid secretion by isolated Malpighian tubules (Ramsay method); set-up: species or system Aedes aegypti; settings: 10 µM in peritubular bath, after 2 hours, high-potassium Ringer
Method: Fluid secretion rates from isolated Malpighian tubules (Ae. aegypti) were measured in vitro using the method described in [25], which is modified from that of Ramsay. In brief, isolated tubules were bathed in a 50 µl drop of a mosquito Ringer solution with elevated K^+ (see composition below), which was then covered with light mineral oil. A glass hook was used to pull the open proximal end of the tubule into the mineral oil where fluid was secreted. The diameter of the droplet was measured to calculate the secreted volumes.
In one set of tubules, the initial spontaneous rate of fluid secretion was calculated during the first 30 min (control). In another set of tubules, the rates of fluid secretion were determined 2 h after adding one of the following to the peritubular bath: the vehicle (0.05% DMSO), VU573 (10 µM), or VU342 (10 µM). The Ringer solution consisted of the following in mM: 119.4 NaCl, 34 KCl, 25 HEPES, 1.8 NaHCO3, 1.7 CaCl2, and 1.0 MgSO4, pH 7.1.
(§4) Data were analyzed using Prism 5 for Windows (Graphpad Software) and Excel (Microsoft Corp). To compare the rates of fluid secretion among control, vehicle, VU573, and VU342 treatments, a one-way ANOVA was performed with a Newman-Keuls posttest. To compare the Vbl and Rpc values of principal cells between control and treatment periods a paired t-test was performed.

[7] = tested on: principal cells of isolated Malpighian tubules; assay: Two-electrode voltage clamp of principal cells in isolated Malpighian tubules; assay type: cell-based, Aedes aegypti; settings: for Rpc (kΩ) / Vbl (mV): VU573 10 µM or barium 5 mM, means ± SEM
Method: The basolateral membrane voltage (Vbl) and input resistance (Rpc) of principal cells were measured in isolated Malpighian tubules using two-electrode voltage clamping, as described previously. In each experiment, a single principal cell near the distal (blind) end of the tubule was impaled with two glass microelectrodes: one measured Vbl and the other injected current (Im). The Rpc of the impaled cell was calculated from current-voltage plots that were generated via voltage clamping (see ref. [25] for details). After recording a steady-state Vbl and Rpc (control) from the impaled cell, either VU573 (10 µM) or BaCl2 (5 mM) was added to the peritubular bath. The resulting Vbl and Rpc (treatment) were measured again upon reaching a new steady-state (usually 1–2 min later).
as §4

[8] = tested on: adult female mosquitoes (Ae. aegypti); assay: Mosquito mortality after 900 nl Na+- or K+-PBS injection; assay type: in vivo, Aedes aegypti
Method: A similar approach was used to determine the toxicity of VU573 after a stress to hemolymph Na^+ or K^+ homeostasis (Figure 2F). However, in these experiments each mosquito was injected with 900 nl of fluid (100 nl/s) and the mosquitoes were not given access to sucrose. The injected fluid was a Na^+-PBS or K^+-PBS containing 1.1% DMSO and 0.77 mM of VU573. Vehicle controls received the respective PBS with DMSO alone. The K^+-PBS consisted of the following in mM: 2.7 NaCl, 137 KCl, 2 Na2HPO4, and 10 KH2PO4 (pH 7.5).

AeKir1 [9] = target: T1, AeKir1; assay: Thallium (Tl+) flux assay of AeKir1 in T-REx-HEK-293 cells; assay type: cell-based; settings: AeKir1-mediated Tl+ flux, means ± SEM
Method: Compound master antagonist plates were created by serial diluting compounds 1∶3 from 30 mM stocks in 100% DMSO using the BRAVO liquid handler (Agilent Technologies, Santa Clara, CA). Assay daughter plates were created using the ECHO 555 liquid hander (Labcyte, Sunnyvale, CA), transferring 240 nl from the master plate to the daughter plate for each well followed by addition of 40 µl of assay buffer resulting in antagonist compound concentration response curves starting at 200 µM (2× final concentration). […] Cell plates and daughter compound plates were loaded onto a kinetic imaging plate reader (FDSS 6000; Hamamatsu Corporation, Bridgewater, NJ). […] Appropriate baseline readings were taken (10 images at 1 Hz; excitation, 470±20 nm; emission, 540±30 nm) and 20 µl test compounds were added followed by 50 images at 1 Hz additional baseline. Following a 20 minute incubation period, baseline readings were taken for 10 seconds followed by addition of 10 µl of Tl^+ stimulus buffer. […] Data were analyzed using Excel (Microsoft Corp, Redmond, WA). […] The slope of the fluorescence increase beginning 5 s after Tl^+ addition and ending 15 s after Tl^+ addition was calculated. […] Potencies were calculated from fits using a four parameter logistic equation.

[10] = tested on: intact mosquitoes (Ae. aegypti); assay: Urine excretion rate of intact mosquitoes after 900 nl HBS injection; assay type: in vivo, Aedes aegypti; settings: 2 h
Method: Urine excretion rates from intact mosquitoes (Ae. aegypti) were measured using a method modified from the laboratory of Hansen. After anesthetizing mosquitoes on ice they were injected as described above with 900 nl of fluid (100 nl/s). The injected fluid was one of two HEPES-buffered saline (HBS) solutions containing 1.8% DMSO with 0.77 mM VU573 or 0.77 mM VU342. Vehicle controls received the respective HBS with DMSO alone. The Na^+-HBS consisted of the following in mM: 146 NaCl, 4.2 N-methyl-D-glucammonium (NMDG)-Cl, and 25 mM HEPES (pH 7.5). The K^+-HBS consisted of the following in mM: 10 mM NaCl, 75 mM KCl, 65.2 mM NMDG-Cl, and 25 mM HEPES (pH 7.5). After injection, mosquitoes were placed immediately in a graduated, packed-cell volume tube (MidSci, St. Louis, MO; 3 mosquitoes per tube) at room temperature. The mosquitoes were removed from the tubes with forceps after 2 h and the excreted urine was centrifuged into the graduated column of the tube for measurement. Uninjected control mosquitoes were handled exactly as above without the injection step. Data were analyzed using Prism 5 for Windows (Graphpad Software). To generate a dose-response curve for VU573, the doses (x-axis) were log transformed and then a non-linear curve was fitted to the data using the ‘log(agonist) vs. response’ algorithm. An ED50 was calculated from this curve. To compare 1) the incapacitating effects among the vehicle, VU573, and VU342 treatments, and 2) the rates of urine excretion among the control, vehicle, VU573, and VU342 treatments, one-way ANOVAs were performed with Newman-Keuls posttests. To compare the incapacitating effects between the vehicle and VU573 within each mosquito species, a paired t-test was used.

[11] = dose-response experiment, 24 h after injection
[12] = 10 µM peritubular, change vs control
[13] = 900 nl K+-HBS containing 0.77 mM compound
[14] = 900 nl Na+-HBS containing 0.77 mM compound

SMILES	mosquitoes bloated (retained fluid) [4]	% Incapacitated (flightless or dead) [4]	IC50 (AeKir1 [5]) [µM]	rate of fluid secretion [6]	Rpc (kΩ) [7]	Vbl (mV) [7]	rate of urine excretion [10, 13]	rate of urine excretion [10, 14] [nL/min]	also measured
Cc1ccc(OCC(O)Cn2c(=N)n(Cc3ccccc3)c3ccccc32)cc1 (centres unmarked) [VU573]	10%	~100%	5.14 ± 1.2	0.26 nL/min	255.3±15.4 ^a kΩ	−52.4±4.5 ^b mV	0.73 nL/min	2.14	incapacitating effect [1]: incapacitates these mosquitoes; incapacitating effect [2]: incapacitates these mosquitoes; incapacitating effect [3]: incapacitates these mosquitoes; proportion of incapacitated mosquitoes that were dead [4, 11]: 7.7%; proportion of incapacitated mosquitoes that were flightless [4, 11]: 92.3%; proportion of incapacitated mosquitoes with greatly distended abdomens (bloated) [4, 11]: 3.6%; ED50 (incapacitated: flightless or dead) ([4]; within 24 h after injection of 69 nl PBS/15% DMSO into hemolymph): 53.6 pmol; hyperpolarization of basolateral membrane voltage (Vbl) [7, 12]: 7.0 mV; increase of input resistance (Rpc) [7, 12]: 5.7 kΩ; mortality compared to vehicle ([8]; 900 nl K+-PBS with 0.77 mM): significantly increases mortality; mortality compared to vehicle ([8]; 900 nl Na+-PBS with 0.77 mM): does not significantly increase mortality; flightlessness ([8]; 900 nl Na+-PBS with 0.77 mM, within 24 hours): renders them flightless; IC50 (AeKir1 [9]): 15 µM
N=c1n(Cc2ccccc2)c2ccccc2n1CC(O)CN1CCOCC1 (centres unmarked) [VU342]	none	less than 20%	112 ± 1.1	no effect on the rate of fluid secretion	–	–	unaffected	5.7	times less potent than VU573 at inhibiting AeKir1 (AeKir1 [5]; ratio of IC50): 22 times; maximal inhibition of AeKir1 (AeKir1 [5]; requires 300 µM): ~65%
[Ba+2].[Cl-].[Cl-] [Barium, BaCl2, reference compound]	–	–	10	–	322.8±31.0 ^d kΩ	−59.3±3.3 ^c mV	–	–	–
